{"source": "patent US8202910B2", "about": "(Sequella, Inc., priority 2006, dated 2012)", "key": {"[1]": {"test_system": "H37Rv strain of Mycobacterium tuberculosis", "assay": "microbe, parasite or virus in culture", "assay_type": "cell-based", "details": "Mycobacterium tuberculosis, H37RV, read-out: MIC"}, "[2]": {"test_system": "cells", "assay": "LD50 for selectivity index (Table 10)", "assay_type": "cell-based, Mycobacterium tuberculosis", "details": "for SI (Selectivity Index): LD50 : MIC", "from_the_text": "Table 10 lists MIC and LD50 data for selected compounds. […] Table 11 lists MIC data for purified substituted ethylene diamines in comparison to ethambutol (EMB)."}, "[3]": {"test_system": "monkey kidney cells (Vero)", "assay": "In vitro toxicity, Vero cells", "assay_type": "cell-based", "details": "Primates", "description": "Twenty six compounds (including 37, 59 and 109) were tested in an in vitro model of toxicity using monkey kidney cells (Vero) and human cervical cancer cells (HeLa) using methods well known to those skilled in the art. The data from this toxicity testing and the MIC data were used to calculate a selectivity index (SI), the ratio of IC50:MIC (Table 15). Selectivity Indexes were ranging from 1.76 to 16.67."}, "[4]": {"assay": "Toxicity, dose escalation study in mice", "description": "Toxicity was assessed using a dose escalation study. This study was performed with ten C57BL/6 mice per candidate. Every two days, the mice were administered an increased concentration of the drug, and monitored for detrimental effects. The administration scheme was 50, 100, 200, 400, 600, 800 and 1000 mg/kg."}, "[5]": {"assay": "Maximum tolerated dose, one-time gavage dose in mice", "assay_type": "in vivo", "description": "[…] Each dose of each compound consisted of one group of 3 mice. Monitoring of the mice was done twice a day for the duration of the experiment. […] The MTD (mg/kg) is the highest dose that results in no lethality/tissue abnormality.\n• 1. […] The compounds are dissolved in the appropriate concentration of ethanol in distilled water and administered in a volume of 0.2 ml per mouse. • 2. Observation of mice: Mice will be observed 4 and 6 hours post administration, then twice daily for one week. Survival and body weight of mice will be closely monitored throughout the study. • 3. […] Critical organs will be aseptically removed and observed; tissues from the liver, heart, and kidneys are extracted and placed into 10% formalin solution. These fixed tissues are sectioned and examined for abnormalities resulting from drug toxicity."}, "[6]": {"assay_type": "in vitro ADME", "details": "6 h", "description": "(§1) Initially, analytical methods for determination of the compounds had been developed that allowed to carry out all the PK experiments, sec FIG. 29. Here is a brief description of the experiment: (1) plasma spiked with tested compounds and 10 uL of Terfenadine or plasma samples (200 uL) added; (2) ACN (2 mL) added to precipitate protein and spin at 2,500 rpm; (3) evaporate supernatant to dryness; (4) add 200 uL of the diluting solvent: methanol (with 0.1% of trifluoroacetic acid): ammonium acetate (80/20); (5) vortex, spin, and use supernatant; (6) run LC/MS/MS on Sciex API 3000.\nBiostability studies of the compounds in plasma were carried out using concentrations 1 and 15 mg/ml. The compounds were incubated for 1, 2, 3 & 6 hr at 37° C. (Table 18)."}, "[7]": {"assay": "in vivo", "parameters": "species or system mice", "details": "mouse", "description": "as §1\nPilot PK study of the compounds 37, 59, and 109 in mice was conducted using a cassette dosing: all the three analogs were formulated together in saline at 1.5 mg/mL, and administered to mice simultaneously orally at 25 mg/kg, peritoneally at 6 mg/kg, and intravenously. […] Obtained data are presented on FIGS. 30, 31, and 32 (tested compounds were studied under the NCI′ indexation NSC) and summarized in Table 19."}, "[8]": {"test_system": "wild type of M.tb", "assay": "MIC, secondary screening, wild type", "assay_type": "cell-based, Mycobacterium tuberculosis", "details": "Mycobacterium tuberculosis, WT"}, "[9]": {"test_system": "M. tuberculosis H37Rv", "assay": "In vivo efficacy, mice infected i.v. with M. tuberculosis, CFU in spleen and lungs", "parameters": "species or system C57BL/6 mice", "details": "10 mg/kg; B6 mice, 5×10^5 CFU, chemotherapy from day 20"}, "[10]": {"details": "concentration at which 50% of the cells are killed"}}, "note": "Like-named read-outs stand apart in the source and are kept apart here."}
{"smiles": "CC1(C)C2CCC(CNCCNCC(c3ccccc3)c3ccccc3)[C@@H]1C2", "note": "(stereo partly drawn) [Compound 37, N-(2,2-Diphenylethyl)-N′-(−)-cis-(myrtanyl)ethane-1,2-diamine]", "values": [{"measurement": "MIC", "setting": "[1]; Table 10, from uM and MW", "result": 7.75, "unit": "µg/mL"}, {"measurement": "MIC", "setting": "[1]; Table 10", "result": 15.6, "unit": "µM"}, {"measurement": "MIC", "setting": "[1]; Table 15", "result": 7.8, "unit": "µM"}, {"measurement": "SI (Selectivity Index)", "setting": "[2]", "result": 2.048}, {"measurement": "LD50", "setting": "[2]; [10]", "result": 32, "unit": "µM"}, {"measurement": "LD50", "setting": "[2]; from uM and MW", "result": 15.872, "unit": "µg/mL"}, {"measurement": "IC50", "setting": "[3]", "result": 32, "unit": "µM"}, {"measurement": "fatal dose", "setting": "[4]; C57BL/6, mouse, in vivo, 2 days", "result": 100, "unit": "mg/kg"}, {"measurement": "toxic dose", "setting": "[4]; dose escalation", "result": 100, "unit": "mg/kg"}, {"measurement": "Day of death", "setting": "[5]; 37 at 100 mg/kg (Table 16)", "result": 1}, {"measurement": "Mice", "setting": "[5]; 37 at 100 mg/kg (Table 16), day 1", "result": "2 to 4", "unit": "h"}, {"measurement": "Mice", "setting": "[5]; 37 at 100 mg/kg (Table 16), day 2", "result": 2}, {"measurement": "Mice", "setting": "[5]; 37 at 100 mg/kg (Table 16), day 3", "result": 2}, {"measurement": "Mice", "setting": "[5]; 37 at 100 mg/kg (Table 16), day 4", "result": 2}, {"measurement": "Mice", "setting": "[5]; 37 at 100 mg/kg (Table 16), day 6", "result": 2}, {"measurement": "Mice", "setting": "[5]; 37 at 100 mg/kg (Table 16), day 7", "result": 2}, {"measurement": "Mice", "setting": "[5]; 37 at 100 mg/kg (Table 17), day 1", "result": 3}, {"measurement": "Mice", "setting": "[5]; 37 at 100 mg/kg (Table 17), day 2", "result": 3}, {"measurement": "Mice", "setting": "[5]; 37 at 100 mg/kg (Table 17), day 3", "result": 3}, {"measurement": "Mice", "setting": "[5]; 37 at 100 mg/kg (Table 17), day 4", "result": 3}, {"measurement": "Mice", "setting": "[5]; 37 at 100 mg/kg (Table 17), day 5", "result": 3}, {"measurement": "Mice", "setting": "[5]; 37 at 100 mg/kg (Table 17), day 6", "result": 3}, {"measurement": "Mice", "setting": "[5]; 37 at 100 mg/kg (Table 17), day 7", "result": 3}, {"measurement": "Mice", "setting": "[5]; 37 at 300 mg/kg, day 1", "result": 3}, {"measurement": "Mice", "setting": "[5]; 37 at 300 mg/kg, day 2", "result": 3}, {"measurement": "Mice", "setting": "[5]; 37 at 300 mg/kg, day 3", "result": 3}, {"measurement": "Mice", "setting": "[5]; 37 at 300 mg/kg, day 4", "result": 3}, {"measurement": "Mice", "setting": "[5]; 37 at 300 mg/kg, day 5", "result": 3}, {"measurement": "Mice", "setting": "[5]; 37 at 300 mg/kg, day 6", "result": 3}, {"measurement": "Mice", "setting": "[5]; 37 at 300 mg/kg, day 7", "result": 3}, {"measurement": "changes in organs", "setting": "[5]; mice surviving one week", "result": "No visible changes in organs"}, {"measurement": "Biostability in plasma (% ↓)", "setting": "[6]; dog", "result": "stable"}, {"measurement": "Biostability in plasma (% ↓)", "setting": "[6]; human", "result": 20, "unit": "% ↓"}, {"measurement": "Biostability in plasma (% ↓)", "setting": "[6]; mouse", "result": "stable"}, {"measurement": "Biostability in plasma (% ↓)", "setting": "[6]; rat", "result": 35, "unit": "% ↓"}, {"measurement": "AUC", "setting": "[7]; ip, 6 mg/kg", "result": 1370, "unit": "ng·h/mL"}, {"measurement": "Cmax", "setting": "[7]; ip, 6 mg/kg", "result": 630, "unit": "ng/mL"}, {"measurement": "Urine excretion (%)", "setting": "[7]; ip, 6 mg/kg", "result": "<0.01", "unit": "%"}, {"measurement": "bioavailability", "setting": "[7]; ip, 6 mg/kg", "result": 72, "unit": "%"}, {"measurement": "half-life", "setting": "[7]; ip, 6 mg/kg", "result": 294, "unit": "min"}, {"measurement": "AUC", "setting": "[7]; iv, 3 mg/kg", "result": 954, "unit": "ng·h/mL"}, {"measurement": "Cmax", "setting": "[7]; iv, 3 mg/kg", "result": 970, "unit": "ng/mL"}, {"measurement": "Urine excretion (%)", "setting": "[7]; iv, 3 mg/kg", "result": ".71%"}, {"measurement": "clearance", "setting": "[7]; iv, 3 mg/kg", "result": 58.8, "unit": "mL/min/kg"}, {"measurement": "half-life", "setting": "[7]; iv, 3 mg/kg", "result": 288, "unit": "min"}, {"measurement": "AUC", "setting": "[7]; po, 25 mg/kg", "result": 1600, "unit": "ng·h/mL"}, {"measurement": "Cmax", "setting": "[7]; po, 25 mg/kg", "result": 263, "unit": "ng/mL"}, {"measurement": "bioavailability", "setting": "[7]; po, 25 mg/kg", "result": 3.3, "unit": "%"}]}
{"smiles": "C[C@@H]1[C@H]2C[C@@H](C[C@H]1NCCNC1CCCCCCC1)C2(C)C", "note": "[Compound 59, N-(Cyclooctyl)-N′-(1R, 2R, 3R, 5S)-(−)-isopinocampheylethane-1,2-diamine]", "values": [{"measurement": "MIC", "setting": "[1]; Table 10, from uM and MW", "result": 6.66, "unit": "µg/mL"}, {"measurement": "MIC", "setting": "[1]; Table 10", "result": 15.6, "unit": "µM"}, {"measurement": "MIC", "setting": "[1]; Table 15", "result": 15.6, "unit": "µM"}, {"measurement": "SI (Selectivity Index)", "setting": "[2]", "result": 2.048}, {"measurement": "LD50", "setting": "[2]; [10]", "result": 32, "unit": "µM"}, {"measurement": "LD50", "setting": "[2]; from uM and MW", "result": 13.632, "unit": "µg/mL"}, {"measurement": "MIC", "setting": "[8]; value in brackets, read-out: MIC (or uM)", "result": 0.13, "unit": "µM"}, {"measurement": "MIC", "setting": "[8]; EMB, RL241, Cmpd#59 as 2HCl salt, Cmpd#109 as 2CF3COOH salt, read-out: MIC", "result": 0.05, "unit": "µg/mL"}, {"measurement": "IC50", "setting": "[3]", "result": 36, "unit": "µM"}, {"measurement": "tolerated dose", "setting": "[4]; C57BL/6, mouse, in vivo", "result": 1000, "unit": "mg/kg"}, {"measurement": "anti-tuberculosis activity compared with EMB", "setting": "[9]", "result": "comparable to that of EMB at 100 mg/kg"}, {"measurement": "Biostability in plasma (% ↓)", "setting": "[6]; dog", "result": "stable"}, {"measurement": "Biostability in plasma (% ↓)", "setting": "[6]; human", "result": "stable"}, {"measurement": "Biostability in plasma (% ↓)", "setting": "[6]; mouse", "result": "stable"}, {"measurement": "Biostability in plasma (% ↓)", "setting": "[6]; rat", "result": "stable"}, {"measurement": "PK profiling (AUC, Cmax)", "setting": "[7]", "result": "relatively poor PK profiling"}, {"measurement": "AUC", "setting": "[7]; ip, 6 mg/kg", "result": 272, "unit": "ng·h/mL"}, {"measurement": "Cmax", "setting": "[7]; ip, 6 mg/kg", "result": 217, "unit": "ng/mL"}, {"measurement": "Urine excretion (%)", "setting": "[7]; ip, 6 mg/kg", "result": "<0.01", "unit": "%"}, {"measurement": "bioavailability", "setting": "[7]; ip, 6 mg/kg", "result": 35, "unit": "%"}, {"measurement": "half-life", "setting": "[7]; ip, 6 mg/kg", "result": 582, "unit": "min"}, {"measurement": "AUC", "setting": "[7]; iv, 3 mg/kg", "result": 384, "unit": "ng·h/mL"}, {"measurement": "Cmax", "setting": "[7]; iv, 3 mg/kg", "result": 296, "unit": "ng/mL"}, {"measurement": "Urine excretion (%)", "setting": "[7]; iv, 3 mg/kg", "result": 1.9, "unit": "%"}, {"measurement": "clearance", "setting": "[7]; iv, 3 mg/kg", "result": 134, "unit": "mL/min/kg"}, {"measurement": "half-life", "setting": "[7]; iv, 3 mg/kg", "result": 384, "unit": "min"}, {"measurement": "AUC", "setting": "[7]; po, 25 mg/kg", "result": 169, "unit": "ng·h/mL"}, {"measurement": "Cmax", "setting": "[7]; po, 25 mg/kg", "result": 28.7, "unit": "ng/mL"}, {"measurement": "bioavailability", "setting": "[7]; po, 25 mg/kg", "result": 0.9, "unit": "%"}]}
